The results in this text go back to US20260217673A1, “NOVEL COMPOUND AS RON INHIBITOR” (LG CHEM, LTD., priority 2022, published 2026).

SMILES strings stand for the structures. Some results are limits rather than exact numbers.

One assay has as its target RON (Homo sapiens, UniProt Q04912). The assay is described as follows: RON inhibitory activity, TR-FRET kinase assay. In kind it is biochemical. The settings on record: RON protein, ULight-labeled Poly GT substrate. The method, boiled down: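 RON was preincubated with compound for 20-30 min at room temperature in HEPES buffer (pH 7.4) with MgCl2 and DTT. Phosphorylation of ULight-Poly GT with ATP ran 60 min before EDTA stop. Europium anti-phosphotyrosine TR-FRET (ex 340, em 620/665 nm) was read and IC50 derived from 10-point 3-fold dilutions.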

A further assay deals with cMET (Homo sapiens, UniProt P08581). Kind of assay: MET (cMET) enzyme inhibitory activity, TR-FRET kinase assay. In kind it is biochemical. The settings on record: cMET protein, TK peptide substrate. Summed up: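 cMET diluted to 2 nM was preincubated 20–30 min at room temperature with compound (10-point 3-fold series from 1 mM DMSO stock). The reaction was started with TK peptide/ATP substrate mix prepared at 2× final (5 μM peptide, 10 mM ATP), run 60 min at room temperature in HEPES pH 7.4 buffer with MnCl2/MgCl2, then EDTA-stopped. Europium anti-phosphotyrosine TR-FRET (ex 340, em 620/665 nm) gave IC50.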
cMET, sequence (P08581 25-1390): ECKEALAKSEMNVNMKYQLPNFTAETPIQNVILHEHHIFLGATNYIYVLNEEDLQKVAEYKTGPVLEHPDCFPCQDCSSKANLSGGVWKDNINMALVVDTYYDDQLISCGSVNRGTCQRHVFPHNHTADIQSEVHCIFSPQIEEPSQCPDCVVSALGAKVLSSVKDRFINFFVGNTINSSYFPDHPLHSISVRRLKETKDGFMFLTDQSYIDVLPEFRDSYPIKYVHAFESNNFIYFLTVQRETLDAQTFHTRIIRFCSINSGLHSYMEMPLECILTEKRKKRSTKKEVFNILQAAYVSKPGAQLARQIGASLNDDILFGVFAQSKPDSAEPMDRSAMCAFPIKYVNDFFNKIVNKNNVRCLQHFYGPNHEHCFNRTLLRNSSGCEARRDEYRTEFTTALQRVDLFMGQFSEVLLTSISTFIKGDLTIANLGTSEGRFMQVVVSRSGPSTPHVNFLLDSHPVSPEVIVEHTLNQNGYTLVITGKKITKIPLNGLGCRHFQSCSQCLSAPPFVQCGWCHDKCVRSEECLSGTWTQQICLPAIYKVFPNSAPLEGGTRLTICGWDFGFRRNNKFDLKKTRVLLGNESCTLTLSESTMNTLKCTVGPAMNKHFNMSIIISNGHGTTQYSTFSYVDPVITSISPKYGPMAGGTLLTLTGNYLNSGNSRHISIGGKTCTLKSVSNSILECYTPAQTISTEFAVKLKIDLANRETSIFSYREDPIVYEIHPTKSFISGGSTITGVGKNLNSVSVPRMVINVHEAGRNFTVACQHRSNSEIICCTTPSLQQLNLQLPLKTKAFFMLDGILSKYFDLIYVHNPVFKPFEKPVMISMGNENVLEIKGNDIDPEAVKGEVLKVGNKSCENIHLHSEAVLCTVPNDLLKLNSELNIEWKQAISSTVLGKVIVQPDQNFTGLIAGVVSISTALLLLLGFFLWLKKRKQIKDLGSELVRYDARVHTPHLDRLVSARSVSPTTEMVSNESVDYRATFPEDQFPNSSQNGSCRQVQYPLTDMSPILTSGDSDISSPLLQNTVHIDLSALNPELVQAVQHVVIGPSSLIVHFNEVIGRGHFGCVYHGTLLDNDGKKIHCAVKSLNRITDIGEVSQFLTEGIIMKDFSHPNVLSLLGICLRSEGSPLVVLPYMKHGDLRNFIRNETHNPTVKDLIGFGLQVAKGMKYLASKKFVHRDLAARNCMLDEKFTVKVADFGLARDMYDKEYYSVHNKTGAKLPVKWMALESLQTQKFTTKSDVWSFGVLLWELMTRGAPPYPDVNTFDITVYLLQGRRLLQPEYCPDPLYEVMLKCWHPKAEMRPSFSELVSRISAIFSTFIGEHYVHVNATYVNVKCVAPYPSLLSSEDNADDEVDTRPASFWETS

RON, sequence (Q04912 25-1400, species assumed): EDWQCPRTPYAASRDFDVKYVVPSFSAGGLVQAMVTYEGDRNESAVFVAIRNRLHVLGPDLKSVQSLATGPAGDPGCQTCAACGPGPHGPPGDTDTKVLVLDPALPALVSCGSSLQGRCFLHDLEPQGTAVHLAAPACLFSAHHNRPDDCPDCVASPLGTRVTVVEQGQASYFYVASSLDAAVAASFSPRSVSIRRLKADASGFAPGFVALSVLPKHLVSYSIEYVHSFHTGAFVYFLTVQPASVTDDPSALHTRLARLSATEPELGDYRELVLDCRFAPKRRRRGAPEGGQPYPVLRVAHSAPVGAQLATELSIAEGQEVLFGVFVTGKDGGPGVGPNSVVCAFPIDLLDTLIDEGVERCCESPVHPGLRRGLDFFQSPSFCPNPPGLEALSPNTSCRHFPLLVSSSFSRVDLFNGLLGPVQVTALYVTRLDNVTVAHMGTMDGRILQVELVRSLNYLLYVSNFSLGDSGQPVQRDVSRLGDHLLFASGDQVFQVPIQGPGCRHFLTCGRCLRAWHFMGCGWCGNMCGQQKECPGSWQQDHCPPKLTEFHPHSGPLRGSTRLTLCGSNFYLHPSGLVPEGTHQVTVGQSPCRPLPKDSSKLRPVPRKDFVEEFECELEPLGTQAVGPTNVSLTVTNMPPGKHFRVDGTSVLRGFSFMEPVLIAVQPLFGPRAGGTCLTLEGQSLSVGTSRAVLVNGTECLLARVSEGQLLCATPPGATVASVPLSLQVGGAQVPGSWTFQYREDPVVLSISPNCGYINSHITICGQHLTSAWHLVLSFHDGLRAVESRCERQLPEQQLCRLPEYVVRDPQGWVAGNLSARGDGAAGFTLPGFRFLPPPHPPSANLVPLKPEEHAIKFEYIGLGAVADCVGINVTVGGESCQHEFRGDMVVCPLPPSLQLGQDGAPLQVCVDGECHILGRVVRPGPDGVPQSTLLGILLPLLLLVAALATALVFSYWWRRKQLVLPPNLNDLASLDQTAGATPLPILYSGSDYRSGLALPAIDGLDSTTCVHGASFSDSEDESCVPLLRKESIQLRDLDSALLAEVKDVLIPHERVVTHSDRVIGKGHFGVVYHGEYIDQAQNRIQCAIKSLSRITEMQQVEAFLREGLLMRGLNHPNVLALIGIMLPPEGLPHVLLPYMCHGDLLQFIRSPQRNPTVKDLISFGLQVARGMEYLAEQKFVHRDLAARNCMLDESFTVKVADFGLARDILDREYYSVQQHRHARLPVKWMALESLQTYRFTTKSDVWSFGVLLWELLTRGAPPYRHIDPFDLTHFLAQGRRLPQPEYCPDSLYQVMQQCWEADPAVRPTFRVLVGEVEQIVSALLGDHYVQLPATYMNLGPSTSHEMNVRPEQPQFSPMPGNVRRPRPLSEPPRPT

With `N#Cc1c(Oc2c(F)cc(NC(=O)c3cnn(-c4ncccc4Cl)c3C(F)(F)F)cc2F)ccnc1N` [Example 34, N-(4-((2-amino-3-cyanopyridin-4-yl)oxy)-3,5-difluorophenyl)-1-(3-chloropyridin-2-yl)-5-(trifluoromethyl)-1H-pyrazole-4-carboxamide], the 50% inhibitory concentration (IC50) at RON is less than 50 nM; against cMET it was 50 to 500 nM.

For the compound `C#Cc1c(Oc2c(F)cc(NC(=O)c3cnn(-c4ncccn4)c3C(F)(F)F)cc2F)ccnc1N` [Example 28, N-(4-((2-amino-3-ethynylpyridin-4-yl)oxy)-3,5-difluorophenyl)-1-(pyrimidin-2-yl)-5-(trifluoromethyl)-1H-pyrazole-4-carboxamide], the IC50 against RON is less than 50 nM; against cMET, 500 to 5000 nM.

Consider `Nc1nccc(Oc2c(F)cc(NC(=O)c3cnn(-c4ncccn4)c3C(F)(F)F)cc2F)c1I` [Example 18, N-(4-((2-amino-3-iodopyridin-4-yl)oxy)-3,5-difluorophenyl)-1-(pyrimidin-2-yl)-5-(trifluoromethyl)-1H-pyrazole-4-carboxamide], for which the IC50 is less than 50 nM at RON and 500 to 5000 nM on cMET.

With `C#Cc1c(Oc2c(F)cc(NC(=O)c3cnn(-c4ncccc4Cl)c3C(F)(F)F)cc2F)ccnc1N` [Example 27, N-(4-((2-amino-3-ethynylpyridin-4-yl)oxy)-3,5-difluorophenyl)-1-(3-chloropyridin-2-yl)-5-(trifluoromethyl)-1H-pyrazole-4-carboxamide], the IC50 against RON was less than 50 nM; against cMET it was 50 to 500 nM.

With `Nc1nccc(Oc2c(F)cc(NC(=O)c3cnn(-c4cccnn4)c3C(F)(F)F)cc2F)c1I` [Example 17, N-(4-((2-amino-3-iodopyridin-4-yl)oxy)-3,5-difluorophenyl)-1-(pyridazin-3-yl)-5-(trifluoromethyl)-1H-pyrazole-4-carboxamide], the IC50 at RON is less than 50 nM; against cMET it was 500 to 5000 nM.

As to `C#Cc1c(Oc2c(F)cc(NC(=O)c3cnn(-c4cccnn4)c3C(F)(F)F)cc2F)ccnc1N` [Example 30, N-(4-((2-amino-3-ethynylpyridin-4-yl)oxy)-3,5-difluorophenyl)-1-(pyridazin-3-yl)-5-(trifluoromethyl)-1H-pyrazole-4-carboxamide], the IC50 was less than 50 nM at RON and 500 to 5000 nM against cMET.

Consider `Nc1ncnc(Oc2c(F)cc(NC(=O)c3cnn(-c4ncccn4)c3C(F)(F)F)cc2F)c1Cl` [Example 12, N-(4-((6-amino-5-chloropyrimidin-4-yl)oxy)-3,5-difluorophenyl)-1-(pyrimidin-2-yl)-5-(trifluoromethyl)-1H-pyrazole-4-carboxamide], for which the concentration for half-maximal inhibition (IC50) is less than 50 nM against RON and 500 to 5000 nM at cMET.

Regarding `Nc1nccc(Oc2c(F)cc(NC(=O)c3cnn(-c4ncccn4)c3C(F)(F)F)cc2F)c1Cl` [Example 2, N-(4-((2-amino-3-chloropyridin-4-yl)oxy)-3,5-difluorophenyl)-1-(pyrimidin-2-yl)-5-(trifluoromethyl)-1H-pyrazole-4-carboxamide], the IC50 at RON was less than 50 nM; against cMET, 500 to 5000 nM.

In the case of `Nc1nccc(Oc2c(F)cc(NC(=O)c3cnn(-c4cccnn4)c3C(F)(F)F)cc2F)c1C#CCO` [Example 56, N-(4-((2-amino-3-(3-hydroxyprop-1-yn-1-yl)pyridin-4-yl)oxy)-3,5-difluorophenyl)-1-(pyridazin-3-yl)-5-(trifluoromethyl)-1H-pyrazole-4-carboxamide], the IC50 was less than 50 nM on RON and 50 to 500 nM at cMET.

As for `Nc1nccc(Oc2c(F)cc(NC(=O)c3cnn(-c4ncccn4)c3C(F)(F)F)cc2F)c1CN1CCOCC1` [Example 48, N-(4-((2-amino-3-(morpholinomethyl)pyridin-4-yl)oxy)-3,5-difluorophenyl)-1-(pyrimidin-2-yl)-5-(trifluoromethyl)-1H-pyrazole-4-carboxamide], the IC50 on RON is less than 50 nM; against cMET it was more than 5000 nM.

On to `Nc1nccc(Oc2c(F)cc(NC(=O)c3cnn(-c4ccccc4)c3C(F)(F)F)cc2F)c1Cl` [Example 1, N-(4-((2-amino-3-chloropyridin-4-yl)oxy)-3,5-difluorophenyl)-1-phenyl-5-(trifluoromethyl)-1H-pyrazole-4-carboxamide], for which the IC50 against RON was less than 50 nM; on cMET, more than 5000 nM.

On to `Nc1nccc(Oc2c(F)cc(NC(=O)c3cnn(-c4ncccc4F)c3C(F)(F)F)cc2F)c1I` [Example 15, N-(4-((2-amino-3-iodopyridin-4-yl)oxy)-3,5-difluorophenyl)-1-(3-fluoropyridin-2-yl)-5-(trifluoromethyl)-1H-pyrazole-4-carboxamide], for which the figures for the IC50 against RON and against cMET were less than 50 nM and 50 to 500 nM, respectively.

In the case of `C#Cc1c(Oc2c(F)cc(NC(=O)c3cnn(-c4ccccn4)c3C(F)(F)F)cc2F)ccnc1N` [Example 29, N-(4-((2-amino-3-ethynylpyridin-4-yl)oxy)-3,5-difluorophenyl)-1-(pyridin-2-yl)-5-(trifluoromethyl)-1H-pyrazole-4-carboxamide], the half-maximal inhibitory concentration (IC50) at RON was less than 50 nM; against cMET it was 500 to 5000 nM.

Consider `Nc1nccc(Oc2c(F)cc(NC(=O)c3cnn(-c4ccccn4)c3C(F)(F)F)cc2F)c1C#CCO` [Example 52, N-(4-((2-amino-3-(3-hydroxyprop-1-yn-1-yl)pyridin-4-yl)oxy)-3,5-difluorophenyl)-1-(pyridin-2-yl)-5-(trifluoromethyl)-1H-pyrazole-4-carboxamide], for which the IC50 was less than 50 nM on RON and 50 to 500 nM against cMET.

Turning to `CC(O)C#Cc1c(Oc2c(F)cc(NC(=O)c3cnn(-c4ncccc4F)c3C(F)(F)F)cc2F)ccnc1N` (stereo not drawn) [Example 57, N-(4-((2-amino-3-(3-hydroxybut-1-yn-1-yl)pyridin-4-yl)oxy)-3,5-difluorophenyl)-1-(3-fluoropyridin-2-yl)-5-(trifluoromethyl)-1H-pyrazole-4-carboxamide], the half-inhibitory concentration (IC50) was less than 50 nM on RON and 50 to 500 nM at cMET.
